Assays:
NLRP3 inflammasome = NLRP3 inflammasome activation in primary astrocytes: immunoblotting, ASC oligomers and specks, co-localization; format: cell-based, C57BL/6J mice; conditions: for co-localization of CASP1 and NLRP3: 10 μM
Protocol: Primary astrocytes were first treated with microglia conditional media to induce astrogliosis ([Liddelow et al., 2017]). For this, the microglia (N9) cell line, provided by Dr. Anirban Basu (National Brain Research Centre, Gurgaon, India) was cultured in RPMI-1640. N9 cells (Passage 28-35) were seeded in 24 well plate at density 0.05 × 10^6 per well. The cells were treated with 1 μg/ml LPS, and supernatant was collected after 24 h. Seeded astrocytes were then treated with the LPS stimulated N9 cells supernatant for 24 h. Thereafter, the treatment for NLRP3 inflammasome activation was given, including priming with fresh 1 μg/ml LPS for 4 h, followed by washing and IBC or MCC950 (100 nM) treatment for 1 h in incomplete media (media without fetal bovine serum). ATP at 5 mM concentration was used as secondary signal for 30 min.
Following treatment with 5 and 10 μM IBC (1 h) and NLRP3 inflammasome activation in primary astrocytes, cells were lysed with ice-cold buffer (KCl [150 mM], HEPES-KOH [20 mM, pH 7.5], NP-40 [1%], sodium orthovanadate [1 mM], PMSF [0.1 mM] and protease inhibitor cocktail [1%]). Cells were centrifuged at 300 g for 10 min. The supernatant was collected for western blot analysis of total ASC protein. The pellet was washed with cold PBS and resuspended in 500 µL cold PBS. For the crosslinking of ASC, 2 mM of […] was added to the resuspended pellet and incubated at 37°C for 30 min in water bath. After centrifugation, the supernatant was discarded, and a 2X Laemmli buffer was added to the pellet. The samples were heated at 95°C for 5 min and subjected to western blotting for analyzing ASC oligomers.
Levels of cleaved IL-1β and caspase-1 were analyzed in cellular supernatant. The supernatant collected after the end of the experiment was incubated with StartaClean resin for 1 h at 4°C. Samples were kept on rotation so that the resin could bind properly with proteins. The concentrated resin pellet was obtained by centrifuging samples at 300 g for 10 min 2X Laemmli buffer was added to the resin pellet, heated at 95°C for 10 min, and subjected to western blotting.
(§1) Cellular lysates were prepared using radio immuno precipitation assay (RIPA) buffer for protein analysis. Briefly, the cell pellet was dissolved in RIPA buffer containing sodium fluoride, sodium orthovanadate, phenyl methyl sulfonyl fluoride (PMSF) and 1% protease inhibitor cocktail for 1 h with vertexing sample every 15 min. The supernatant was collected after high-speed centrifugation of samples for 20 min at 4°C. For analysis of proteins in mice hippocampi, the hippocampi isolated from mice brains was immediately washed with saline and stored in liquid nitrogen. For lysates preparation, tissue was homogenized in RIPA buffer substituted with sodium fluoride, sodium orthovanadate, phenyl methyl sulfonyl fluoride and 1% protease inhibitor cocktail. Total protein was measured using Bradford assay. Proteins were separated using SDS-PAGE and then transferred from gel to PVDF membrane. The protein of interest was labeled with a specific primary antibody overnight at 4°C. Further, the blot was incubated with corresponding HRP-conjugated secondary antibody for 1 h at room temperature. The band were visualized in the Genaxy Chemi Doc imaging system (Make: Syngene, Maryland, USA; Model: G: BOX, XT-4). Densitometry analysis of all the immunoblots was performed by using ImageJ software. Band density of proteins was normalized with β-actin. The phosphorylated proteins were normalized with their total forms.
Cells were seeded on coverslips in 6 well plates. After treatments, cells were fixed with 4% paraformaldehyde (PFA) for 15 min and permeabilized with 0.1% Triton-X 100 for 7 min. Blocking was done for 30 min with 2% BSA, followed by overnight incubation with primary antibody. Alexa fluor conjugated secondary antibody incubation was given to cells for 1 h for labeling. The nucleus was stained with 4,6-diamidino-2-phenylindole (DAPI) (1 μg/mL) for 10 min. […]

[1] = tested on: autophagy pathway proteins; assay: Immunoblotting of autophagy pathway proteins in primary astrocytes; format: cell-based, C57BL/6J mice
Protocol: Primary astrocytes were cultured from C57BL/6J (Jax:000664) mice pups with the approval of Institutional Animal Ethics Committee (IAEC) of CSIR-Indian Institute of Integrative Medicine (IIIM), Jammu, under IAEC number 287/80/2/2022 and 305/81/8/2022. The astrocytes were isolated from the brain of 3–4 days-old mice pups and were grown in 10% FBS-supplemented DMEM media. Briefly, pups were sacrificed through decapitation and sterilized with 70% ethanol. Brain was exposed and isolated. Olfactory lobes and cerebellum were removed with fine blade. The cortical region separated was collected in incomplete media (media without fetal bovine serum) and cut into small pieces. After that, these cortices were incubated at 37°C in 0.25% trypsin for 30 min, with gentle shaking after every 10 min. Trypsin activity was neutralized with complete media and cells were collected using a 70-micron cell strainer followed by centrifugation at 300 g for 5 min. The pellet was dissolved in fresh media and cells were grown in cell culture flasks and were maintained at 37°C in a CO2 incubator. Microglia and oligodendrocytes were separated from the underlying astrocyte layer after 6-7 days by shaking the flask for 6 h at 240 rpm. Cultures astrocytes within 2-4 passage were used for all the experiments.
as §1

[2] = LPS + ATP, 5 and 10 μM, western blot
[3] = in the presence of LPS and ATP, 5 and 10 μM

CC(C)=CCc1c(O)ccc(C(=O)/C=C/c2ccc(O)cc2)c1O [IBC, isobavachalcone]
ASC speck formation (NLRP3 inflammasome; 5 μM and 10 µM, vs cells induced with ATP): highly significant (p < 0.0001) reduction
co-localization of CASP1 and NLRP3 (NLRP3 inflammasome; in the presence of siAMPK): did not affect the co-localization
co-localization of CASP1 and NLRP3 (NLRP3 inflammasome; vs LPS + ATP): reduced the co-localization
ASC monomer, dimer, and oligomer formation (NLRP3 inflammasome; LPS + ATP, 5 and 10 μM): inhibited
cleaved CASP1 in supernatant (NLRP3 inflammasome; [2]): reduced release
cleaved IL-1β in supernatant (NLRP3 inflammasome; [2]): reduced release
NLRP3 protein expression (NLRP3 inflammasome; LPS + ATP, western blot): no change
AMPK phosphorylation (Thr 172) (NLRP3 inflammasome; [3]): significantly enhanced phosphorylation
LC3B-II level (NLRP3 inflammasome; [3]): marked increase
SQSTM1 level (NLRP3 inflammasome; [3]): significant decline
inhibitory effect on IL-1b and CASP1 under AMPK knockdown (NLRP3 inflammasome; siAMPK, LPS + ATP): completely reversed
ATG5 level ([1]; 24 h): upregulated
ATG7 level ([1]; 24 h): upregulated
BECN1 expression ([1]; 24 h): did not show any change
FIP200 phosphorylation ([1]; 24 h): increased phosphorylation
MTOR level ([1]; 24 h): no change
ULK1 phosphorylation ([1]; 24 h): phosphorylated at Ser 317
pLKB1 (Ser 428) level ([1]; 24 h): no change
AMPK phosphorylation (Thr 172) ([1]; 24 h, 5, 10 and 20 μM): concentration-dependent increase
BCL2 level ([1]; 24 h, 5, 10 and 20 μM): marked decline
LC3B-II level ([1]; 24 h, 5, 10 and 20 μM): significant increase
pCAMKK2 (Ser 511) level ([1]; 24 h, 5, 10 and 20 μM): significantly upregulated
SQSTM1 level ([1]; 24 h, 10 and 20 μM): reducing levels
